# Reference: US20040024024A1, “Aromatic sulfone hydroxamates and their use as protease inhibitors” (priority 2001, published 2004)
# Assays:
# Human recombinant MMP-2 = target: T1, Human recombinant MMP-2 (Homo sapiens, UniProt P08253); assay: In vitro MMP inhibition, Ki determination (fluorogenic substrate II); format: biochemical
# T1 construct: made in house; host or cells: MMP-2-transfected p2AHT2 cells
# T1 sequence (P08253 110-660): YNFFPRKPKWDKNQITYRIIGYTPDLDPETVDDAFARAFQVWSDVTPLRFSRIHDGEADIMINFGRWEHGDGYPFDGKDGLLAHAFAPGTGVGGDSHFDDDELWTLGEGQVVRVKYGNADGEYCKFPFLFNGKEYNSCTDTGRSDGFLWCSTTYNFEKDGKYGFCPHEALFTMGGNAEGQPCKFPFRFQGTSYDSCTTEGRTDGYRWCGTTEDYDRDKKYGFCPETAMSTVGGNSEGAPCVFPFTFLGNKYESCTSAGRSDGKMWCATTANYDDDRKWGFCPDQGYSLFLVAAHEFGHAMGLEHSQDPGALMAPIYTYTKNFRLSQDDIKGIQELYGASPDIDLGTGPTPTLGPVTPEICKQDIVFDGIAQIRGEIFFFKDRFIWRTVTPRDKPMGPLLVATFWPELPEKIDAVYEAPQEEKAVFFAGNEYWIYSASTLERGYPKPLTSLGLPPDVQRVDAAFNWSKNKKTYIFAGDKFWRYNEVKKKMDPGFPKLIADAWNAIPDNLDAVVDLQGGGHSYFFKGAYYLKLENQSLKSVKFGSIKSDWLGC
# Method: Several hydroxamates and salts thereof were analyzed in in vitro assays to determine their ability to inhibit the MMP cleavage of peptide substrates. Inhibition (Ki) and IC50 constants were calculated from the assayed hydroxamate-MMP interactions.
# Human recombinant MMP-1, MMP-2, MMP-9, MMP-13, and MMP-14 were used in this assay. All enzymes were prepared in Assignee's laboratories following usual laboratory procedures. Protocols for the preparation and use of these enzymes are available in the scientific literature. See, e.g., Enzyme Nomenclature (Academic Press, San Diego, Calif., 1992) (and the citations therein). See also, Frije et al., J. Biol. Chem., 26(24), 16766-73 (1994).
# The MMP-2 proenzyme was purified by gelatin Sepharose chromatography from MMP-2-transfected p2AHT2 cells provided by Dr. Gregory Goldberg of Washington University (St. Louis, Mo.).
# All MMPs were activated using 4-aminophenylmercuric acetate (“APMA”, Sigma Chemical, St. Louis, Mo.) or trypsin. MMP-9 also was activated using human recombinant MMP-3 (purified in Assignee's laboratory following standard cloning and purification techniques).
# Two fluorogenic, methoxycoumarin-containing polypeptide substrates were used in the MMP inhibition assays:
# MCA-ArgProLeuGlyLeuDpaAlaArgGluArgNH2 (II)
# Here, “Dpa” is 3-(2,4-dinitrophenyl)-L-2,3-diaminopropionyl group, and “MCA” is 7-methoxycoumarin-4-yl acetyl. Substrate (I) was purchased from Baychem (Redwood City, Calif.), and substrate II was prepared Assignee's laboratory. Substrate I was used in the IC50 determination assays, while substrate II was used in the Ki determination assays. In the absence of MMP inhibitory activity, either substrate is cleaved at the Gly-Leu peptide bond. This cleavage separates the highly fluorogenic peptide from the 2,4-dinitrophenyl quencher, thus resulting in increase of fluorescent intensity.
# The stock solutions of the assayed hydroxamates (or salts thereof) were prepared in 1% dimethyl sulfoxide (DMSO). These stock solutions were diluted in Buffer A (100 mM Tris-HCl, 100 mM NaCl, 10 mM CaCl2, 0.05% polyoxyethylene 23 lauryl ether, pH 7.5) to obtain solutions with different hydroxamate concentrations, i.e., assay solutions with different concentrations of the assayed MMP inhibitory compound. The experiment controls contained the same amount of Buffer A/DMSO as the assayed sample, but contained no hydroxamate (or salt thereof).
# The assays from which the Ki determinations were made were performed as follows. The assayed hydroxamate samples were incubated in separate wells of untreated white polystyrene plates (Nunc Nalgene International, Rochester, N.Y.), and analyzed on a Tecan SpectraFlour Plus plate reader. The excitation wavelength was 330 nm, and the emission wavelength—420 nm. All samples (assayed hydroxamates and controls) were incubated in separate plate wells at room temperature for 1 hr in the presence of 4 μM of MMP substrate (II). In the absence of MMP inhibitory activity, substrate II was cleaved at the Gly-Leu bond resulting in an increase of relative fluorescence. Inhibition was observed as a reduced rate of this increase in relative fluorescence. The various hydroxamates were analyzed using a single low enzyme concentration with a single substrate concentration fixed at or below the Km. This protocol is a modification of method by Knight et al., FEBS Lett., 296(3), 263-266 (1992). Apparent inhibitory constants were determined by non-linear regression of reaction velocity as a function of inhibitor and enzyme concentration using Morrison's equation, as described by Kuzmic, Anal. Biochem. 286, 45-50 (2000). […] Since the substrate concentration was chosen to be at or below the Km, the apparent Ki's from this analysis were reported as Ki's without correction for the influence of substrate.
# Human recombinant MMP-14 = target: T2, Human recombinant MMP-14 (Homo sapiens, UniProt P50281); assay: In vitro MMP inhibition, IC50 determination (fluorogenic substrate I); format: biochemical
# T2 construct: The catalytic domain enzyme was expressed in E. coli inclusion bodies, solubilized in urea; made in house
# In short: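 IC50 came from reduced fluorescence (ex 328 nm, em 415 nm) as inhibitor concentration rose, with 4 μM substrate I cleaved at Gly-Leu. Room-temperature incubation in pH 7.5 Tris buffer with 10 mM CaCl2; the E. coli-expressed, refolded MMP-14 catalytic domain was activated with trypsin or APMA.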
SMILES,Ki (Human recombinant MMP-2; value in parenthesis) [nM],IC50 (Human recombinant MMP-14; value outside parenthesis) [nM],other results
O=C(NO)C1(S(=O)(=O)c2ccc(OCCCn3nnc(-c4ccc(OC(F)(F)F)cc4)n3)cc2)CCN(CC2CC2)CC1 [Example 53],–,–,"Ki (Human recombinant MMP-2; substrate (II) 4 μM, 1 hr room temperature, apparent Ki, values in parenthesis): 697 nM; IC50 (Human recombinant MMP-14; substrate (I) 4 μM, room temperature, values not in parenthesis): > 10000 nM"
CC(C)C(=O)c1cccc(CCCOc2ccc(S(=O)(=O)C3(C(=O)NO)CCOCC3)cc2)c1 [Example 95],149,> 10000,–
O=C(NO)C1(S(=O)(=O)c2ccc(OCCCc3cccc(Cc4ccccc4)c3)cc2)CCOCC1 [Example 98],625,> 10000,–
O=C(NO)C1(S(=O)(=O)c2ccc(OCCc3cccc(-c4ccncc4)c3)cc2)CCOCC1 [Example 113],42.3,7720,–
O=C(NO)C1(S(=O)(=O)c2ccc(OCCc3cccc(-c4ccccc4F)c3)cc2)CCOCC1 [Example 115],807,> 10000,–
O=C(NO)C1(S(=O)(=O)c2ccc(OCCc3cccc(-c4ccc(F)cc4)c3)cc2)CCOCC1 [Example 123],793,> 10000,–
O=C(NO)C1(S(=O)(=O)c2ccc(OCCc3cccc(-c4cccnc4)c3)cc2)CCOCC1 [Example 125],51.3,5820,–
Cc1ccc(-c2cccc(CCOc3ccc(S(=O)(=O)C4(C(=O)NO)CCOCC4)cc3)c2)cc1 [Example 127],2160,> 10000,–
O=C(NO)C1(S(=O)(=O)c2ccc(OCCCc3cccc(-c4ccc(F)cc4)c3)cc2)CCN(C2CC2)CC1 [Example 139],1410,> 10000,–
COCCN1CCC(C(=O)NO)(S(=O)(=O)c2ccc(OCCCc3cccc(-c4ccc(F)cc4)c3)cc2)CC1 [Example 140],708,> 10000,–
O=C(NO)C1(S(=O)(=O)c2ccc(OCCCc3cccc(-c4cccnc4)c3)cc2)CCOCC1 [Example 150],159,6630,–
COCCN1CCC(C(=O)NO)(S(=O)(=O)c2ccc(OCCCc3nc(-c4ccccc4OC(F)(F)F)no3)cc2)CC1 [Example 152],149,> 10000,–
O=C(NO)C1(S(=O)(=O)c2ccc(OCCCc3cccc(Br)c3)cc2)CCOCC1 [Example 154],33.9,9120,–
CCc1ccccc1-c1noc(CCCOc2ccc(S(=O)(=O)C3(C(=O)NO)CCN(CCOC)CC3)cc2)n1 [Example 155],37.9,> 10000,–
O=C(NO)C1(S(=O)(=O)c2ccc(OCCOc3cccc(-c4ccccc4)c3)cc2)CCOCC1 [Example 157],419,> 10000,–
O=C(NO)C1(S(=O)(=O)c2ccc(OCCCc3cccc(-c4cccc(F)c4)c3)cc2)CCOCC1 [Example 161],1760,> 10000,–
O=C(NO)C1(S(=O)(=O)c2ccc(OCCCc3cccc(-c4ccccc4F)c3)cc2)CCOCC1 [Example 163],1010,> 10000,–
COCCN1CCC(C(=O)NO)(S(=O)(=O)c2ccc(OCCCc3nc(-c4ccc(CC(C)C)cc4)no3)cc2)CC1 [Example 175],872,> 10000,–
COCCN1CCC(C(=O)NO)(S(=O)(=O)c2ccc(OCCCc3nnc(-c4ccccc4C(F)(F)F)o3)cc2)CC1 [Example 178],39.3,> 10000,–

SMILES,Ki (Human recombinant MMP-2; value in parenthesis) [nM],IC50 (Human recombinant MMP-14; value outside parenthesis) [nM],other results
O=C(CCCOc1ccc(S(=O)(=O)C2(C(=O)NO)CCOCC2)cc1)Nc1cccc(OC(F)(F)F)c1 [Example 181],15.8,8060,–
CC(C)c1cccc(NC(=O)CCCOc2ccc(S(=O)(=O)C3(C(=O)NO)CCOCC3)cc2)c1 [Example 182],34.3,> 10000,–
COCCN1CCC(C(=O)NO)(S(=O)(=O)c2ccc(OCCCc3nc(-c4ccc(OC(F)(F)F)cc4)no3)cc2)CC1 [Example 190],283,> 10000,–
O=C(NO)C1(S(=O)(=O)c2ccc(OCCCc3ccnc(-c4ccccc4)c3)cc2)CCOCC1 [Example 197],30.7,> 10000,–
O=C(CCCc1ccc(S(=O)(=O)C2(C(=O)NO)CCOCC2)cc1)c1cccc(-c2ccccc2)c1 [Example 219],105,> 10000,–
O=C(CCCOc1ccc(S(=O)(=O)C2(C(=O)NO)CCOCC2)cc1)Nc1ccc(OC(F)(F)F)cc1 [Example 228],22.4,> 10000,–
Cc1cc(OC(F)(F)F)ccc1NC(=O)CCCOc1ccc(S(=O)(=O)C2(C(=O)NO)CCOCC2)cc1 [Example 229],10.4,> 10000,–
COc1ccc(/C(C#N)=C/CCCOc2ccc(S(=O)(=O)C3(C(=O)NO)CCN(C4CC4)CC3)cc2)cc1 [Example 233],60.2,> 10000,–
CN(C(=O)CCCOc1ccc(S(=O)(=O)C2(C(=O)NO)CCOCC2)cc1)c1ccc(OC(F)(F)F)cc1 [Example 249],333,> 10000,–
O=C(CCCOc1ccc(S(=O)(=O)C2(C(=O)NO)CCOCC2)cc1)Nc1ccc(OC(F)(F)F)cc1 [Example 250],3.12,7630,–
Cc1cc(NC(=O)CCCOc2ccc(S(=O)(=O)C3(C(=O)NO)CCOCC3)cc2)ccc1OC(C)C [Example 290],1010,> 10000,–
O=C(NO)C1(S(=O)(=O)c2ccc(OCCCc3cncc(-c4ccc(F)cc4)c3)cc2)CCOCC1 [Example 523],–,–,Ki (Human recombinant MMP-2; value in parentheses): 197 nM; IC50 (Human recombinant MMP-14; value outside parentheses): > 10000 nM
O=C(NO)C1(S(=O)(=O)c2ccc(OCCCc3cncc(-c4ccccc4)c3)cc2)CCOCC1 [Example 524],–,–,Ki (Human recombinant MMP-2; value in parentheses): 51.8 nM; IC50 (Human recombinant MMP-14; value outside parentheses): > 10000 nM
O=C(NO)C1(S(=O)(=O)c2ccc(OCCCc3cc(-c4ccc(F)cc4F)cs3)cc2)CCOCC1 [Example 587],–,–,Ki (Human recombinant MMP-2; value in parentheses): 125 nM; IC50 (Human recombinant MMP-14; value outside parentheses): > 10000 nM
O=C(NO)C1(S(=O)(=O)c2ccc(OCCCc3cccc(-c4cccs4)c3)cc2)CCOCC1 [Example 595],–,–,Ki (Human recombinant MMP-2; value in parentheses): 586 nM; IC50 (Human recombinant MMP-14; value outside parentheses): > 10000 nM
O=C(Cc1csc2ccccc12)NCCOc1ccc(S(=O)(=O)C2(C(=O)NO)CCOCC2)cc1 [Example 596],–,–,Ki (Human recombinant MMP-2; value in parentheses): 11.2 nM; IC50 (Human recombinant MMP-14; value outside parentheses): 2490 nM
O=C(NCCOc1ccc(S(=O)(=O)C2(C(=O)NO)CCOCC2)cc1)c1cc2ccccc2[nH]1 [Example 599],–,–,Ki (Human recombinant MMP-2; value in parentheses): 0.38 nM; IC50 (Human recombinant MMP-14; value outside parentheses): 57 nM
O=C(NO)C1(S(=O)(=O)c2ccc(OCCCc3cc(-c4ccc(OC(F)(F)F)cc4)cs3)cc2)CCOCC1 [Example 608],–,–,Ki (Human recombinant MMP-2; value in parentheses): 724 nM; IC50 (Human recombinant MMP-14; value outside parentheses): > 10000 nM
N#Cc1ccc(-c2cccc(CCCOc3ccc(S(=O)(=O)C4(C(=O)NO)CCOCC4)cc3)c2)cc1 [Example 624],–,–,Ki (Human recombinant MMP-2; value in parentheses): 623 nM; IC50 (Human recombinant MMP-14; value outside parentheses): > 10000 nM
